ChEMBL document CHEMBL5034037, “Synthesis, Characterization, and Preclinical Evaluation of a Small-Molecule Prostate-Specific Membrane Antigen-Targeted Monomethyl Auristatin E Conjugate” (J Med Chem, 2021)
Several values for one entry are separate records, joined by “and”; a condition that tells them apart may be missing. Identical values can stand only once. Activity calls are given as the source filed them. The rule behind the calls is not given here. *1 amine or outer side, *2 acyl side, *3 side chain or, on linkers, in order; H or OH if unused. Where a SMILES comes first, the peptide text is derived from it. [ ]: non-standard residue; d: D form. The star is where a group is joined. GluureaLys(ε-3-ClBenzyl) = O=C(O)CC[C@H](NC(=O)N[C@@H](CCCCN(Cc1cccc(Cl)c1)*)C(=O)O)C(=O)O; Dolaproine = CO[C@@H]([C@@H]1CCCN1)[C@@H](C)C(=O)O; Dil = CC[C@H](C)[C@H](NC)[C@@H](CC(=O)O)OC; X1 = O=C(CCCc1cn(CCCN[*:1])nn1)[*:2]; PABC = O=C(OCc1ccc(N[*:1])cc1)[*:2]; X2 = C[C@@H](N*)[C@@H](O)c1ccccc1; Cit = NC(=O)NCCC[C@H](N)C(=O)O; Suc = O=C(CCC(=O)[*:2])[*:1]; NMeV = CN[C@H](C(=O)O)C(C)C; Ahx = NCCCCCC(=O)O

Experiments:
[1] = Toxicity in rat assessed as morphological changes in duodenum at 150 to 225 microg/kg, iv; type: tissue-based; settings: in vivo, dose 150-225 µg/kg
[2] = Toxicity in rabbit assessed as morphological changes in cerebrum at 81 to 122 microg/kg, iv; type: tissue-based, Oryctolagus cuniculus; settings: in vivo, dose 81-122 µg/kg
[3] = Toxicity in mouse xenografted with human 22Rv1 cells assessed as early fell at 0.6 mg/kg, ip daily treated for 5 days after 18 days of tumor implantation measured upto 10 days; type: organism-based, CWR22R; settings: in vivo, 120 h, time 5 day
[4] = Toxicity in rabbit assessed as pathological change in leydig cells in testes at 81 to 122 microg/kg, iv; type: cell-based, Oryctolagus cuniculus; settings: in vivo, dose 81-122 µg/kg
[5] = Toxicity in rabbit assessed as morphological changes in brain sulcus at 81 to 122 microg/kg, iv; type: tissue-based, Oryctolagus cuniculus; settings: in vivo, dose 81-122 µg/kg
Salmonella typhimurium [6] = assay: Mutagenecity in Salmonella typhimurium TA100 without metabolic activation system at 10000 ug/ml by Ames test; type: toxicity, organism-based; settings: salmonella enterica subsp. enterica serovar typhimurium; dose 10000 µg/ml
[7] = Toxicity in rat assessed as morphological changes in gastric wall mucosa at 150 to 225 microg/kg, iv; settings: in vivo, dose 150-225 µg/kg
[8] = Chronic toxicity in rat assessed as reduced volume of urine at […], iv administered once every 3 weeks for 3 months; type: organism-based; settings: in vivo, 504 h, dose lower 150 mg/kg
[9] = Acute toxicity in iv dosed ICR mouse assessed as median mortality dose; type: organism-based; settings: in vivo
[10] = Ratio of AUC (t to infinity) to AUC (0 to infinity) in rat at 1.5 mg/kg, iv; type: ADME, organism-based; settings: in vivo
[11] = Antitumor activity against human 22Rv1 cells xenografted in mouse assessed as tumour growth inhibition at 10 mg/kg,ip daily treated for 5 days after 18 days of tumor implantation measured upto 10 days; type: functional, CWR22R; settings: 22Rv1, ip, 120 h, time 5 day, read-out: TGI
Salmonella typhimurium [12] = assay: Mutagenecity in Salmonella typhimurium TA97 in presence of metabolic activation system at 10 ug/ml by Ames test; type: toxicity, organism-based; settings: salmonella enterica subsp. enterica serovar typhimurium; dose 10 µg/ml
[13] = AUC (0 to t) in Wistar rat at 1.5 mg/kg, iv; type: ADME, organism-based; parameters: dose 1.5 mg/kg; settings: in vivo
Salmonella typhimurium [14] = assay: Mutagenecity in Salmonella typhimurium TA98 without metabolic activation system at 1 ug/ml by Ames test; type: toxicity, organism-based; settings: salmonella enterica subsp. enterica serovar typhimurium; dose 1 µg/ml
[15] = Toxicity in rat assessed as morphological changes in capsule of the kidney at 150 to 225 microg/kg, iv; type: tissue-based; settings: in vivo, dose 150-225 µg/kg
[16] = Toxicity in rabbit assessed as morphological changes in gastric wall mucosa at 81 to 122 microg/kg, iv; parameters: species or system Oryctolagus cuniculus; settings: in vivo, dose 81-122 µg/kg
[17] = Toxicity in rabbit assessed as morphological changes in liver at 81 to 122 microg/kg, iv; type: tissue-based, Oryctolagus cuniculus; settings: in vivo, dose 81-122 µg/kg
PC-3 = assay: Induction morphological changes in human PC-3 cells assessed as decrease in cell membrane stiffness measured upto 1 hr; type: functional, cell-based; settings: time hrs <=1
[18] = AUC (0 to infinity) in rabbit at 0.81 mg/kg, iv; type: ADME, organism-based, Oryctolagus cuniculus; parameters: time infinity, route intravenous, dose 0.81 mg/kg; settings: in vivo
[19] = Toxicity in rabbit assessed as morphological changes in mucosa of trachea at 81 to 122 microg/kg, iv; type: tissue-based, Oryctolagus cuniculus; settings: in vivo, dose 81-122 µg/kg
[20] = Toxicity in mouse assessed as change in body weight at 0.3 mg/kg, iv measured after 20 days; type: organism-based; settings: in vivo, 480 h, time 20 day
[21] = Stability of compound in pH 7.4 assessed as hydrolysis measured within 96 hrs; type: physicochemical; settings: buffer, pH 7.4, 96 h
[22] = Acute toxicity in iv dosed Wistar rat assessed as maximum tolerated dose; type: organism-based; settings: in vivo, read-out: MNTD
Salmonella typhimurium [23] = assay: Mutagenecity in Salmonella typhimurium TA100 in presence of metabolic activation system at 10 ug/ml by Ames test; type: toxicity, organism-based; settings: salmonella enterica subsp. enterica serovar typhimurium; dose 10 µg/ml
[24] = Toxicity in rabbit assessed as morphological changes in kidney at 81 to 122 microg/kg, iv; type: tissue-based, Oryctolagus cuniculus; settings: in vivo, dose 81-122 µg/kg
Salmonella typhimurium [25] = assay: Mutagenecity in Salmonella typhimurium TA100 in presence of metabolic activation system at 10000 ug/ml by Ames test; type: toxicity, organism-based; settings: salmonella enterica subsp. enterica serovar typhimurium; dose 10000 µg/ml
[26] = Toxicity in rat assessed as morphological changes in diameter of aorta at 150 to 225 microg/kg, iv; type: tissue-based; settings: in vivo, dose 150-225 µg/kg
[27] = Toxicity in rabbit assessed as morphological changes in cerebral membrane at 81 to 122 microg/kg, iv; parameters: species or system Oryctolagus cuniculus; settings: in vivo, dose 81-122 µg/kg
Salmonella typhimurium [28] = assay: Mutagenecity in Salmonella typhimurium TA98 in presence of metabolic activation system at 1 ug/ml by Ames test; type: toxicity, organism-based; settings: salmonella enterica subsp. enterica serovar typhimurium; dose 1 µg/ml
Cytochrome P450 1A2 = molecular target: T1, Cytochrome P450 1A2 (Homo sapiens, UniProt P05177); assay: Drug metabolism assessed as human liver microsome CYP1A2-mediatd metabolism; type: ADME; settings: microsomes
T1 sequence (P05177 whole entry): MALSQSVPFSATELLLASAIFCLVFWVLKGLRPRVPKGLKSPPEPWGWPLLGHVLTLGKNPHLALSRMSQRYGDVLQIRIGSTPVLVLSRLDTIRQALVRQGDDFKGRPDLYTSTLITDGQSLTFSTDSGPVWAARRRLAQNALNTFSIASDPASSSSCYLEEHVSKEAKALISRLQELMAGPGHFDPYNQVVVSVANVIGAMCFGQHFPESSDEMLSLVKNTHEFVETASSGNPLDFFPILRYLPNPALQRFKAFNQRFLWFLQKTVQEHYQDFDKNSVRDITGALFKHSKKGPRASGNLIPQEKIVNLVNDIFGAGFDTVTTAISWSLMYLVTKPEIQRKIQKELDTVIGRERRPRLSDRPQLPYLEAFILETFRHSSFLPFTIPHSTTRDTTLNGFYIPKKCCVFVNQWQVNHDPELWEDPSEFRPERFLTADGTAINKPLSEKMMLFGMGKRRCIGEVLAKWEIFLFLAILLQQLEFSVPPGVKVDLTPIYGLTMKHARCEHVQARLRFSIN

Salmonella typhimurium [29] = assay: Mutagenecity in Salmonella typhimurium TA97 in presence of metabolic activation system at 1000 ug/ml by Ames test; type: toxicity, organism-based; settings: salmonella enterica subsp. enterica serovar typhimurium; dose 1000 µg/ml
Salmonella typhimurium [30] = assay: Mutagenecity in Salmonella typhimurium TA98 in presence of metabolic activation system at 10 ug/ml by Ames test; type: toxicity, organism-based; settings: salmonella enterica subsp. enterica serovar typhimurium; dose 10 µg/ml
[31] = Toxicity in rabbit assessed as morphological changes in diameter of aorta at 81 to 122 microg/kg, iv; type: tissue-based, Oryctolagus cuniculus; settings: in vivo, dose 81-122 µg/kg
[32] = Toxicity in rabbit assessed as morphological changes in spleen pulp at 81 to 122 microg/kg, iv; type: tissue-based, Oryctolagus cuniculus; settings: in vivo, dose 81-122 µg/kg
Salmonella typhimurium [33] = assay: Mutagenecity in Salmonella typhimurium TA97 without metabolic activation system at 100 ug/ml by Ames test; type: toxicity, organism-based; settings: salmonella enterica subsp. enterica serovar typhimurium; dose 100 µg/ml
[34] = Toxicity in rabbit morphological change in mucosae of mouth at 81 to 122 microg/kg, iv; type: tissue-based, Oryctolagus cuniculus; settings: in vivo, dose 81-122 µg/kg
[35] = Toxicity in rabbit assessed as morphological changes in lumen of trachea at 81 to 122 microg/kg, iv; type: tissue-based, Oryctolagus cuniculus; settings: in vivo, dose 81-122 µg/kg
[36] = Chronic toxicity in rabbit assessed as decrease in the blood lymphocyte count at […], iv administered once every 3 weeks for 3 months; type: organism-based, Oryctolagus cuniculus; settings: in vivo, 504 h, dose lower 81 mg/kg

In the case of `CC[C@H](C)[C@@H]([C@@H](CC(=O)N1CCC[C@H]1[C@H](OC)[C@@H](C)C(=O)N[C@H](C)[C@@H](O)c1ccccc1)OC)N(C)C(=O)[C@@H](NC(=O)[C@H](C(C)C)N(C)C(=O)OCc1ccc(NC(=O)[C@H](CCCNC(N)=O)NC(=O)[C@@H](NC(=O)CCCc2cn(CCCNC(=O)[C@H](Cc3ccc(O)cc3)NC(=O)[C@H](Cc3ccccc3)NC(=O)CCC(=O)NCCCCCC(=O)N(CCCC[C@H](NC(=O)N[C@@H](CCC(=O)O)C(=O)O)C(=O)O)Cc3cccc(Cl)c3)nn2)C(C)C)cc1)C(C)C` ({GluureaLys(ε-3-ClBenzyl)-Ahx-Suc}-FY[X1]V[Cit][PABC][NMeV]V[Dil][Dolaproine]-X2), the Activity [1] is reported as “Non-Toxic”, the Activity [2] is reported as “Non-Toxic” and the Activity [3] is reported as “Toxic”. For the same compound, the Activity [4] was “Non-Toxic”, the Activity [5] was “Non-Toxic” and the Activity (Salmonella typhimurium [6]) was “Non-Toxic”. The Activity [7] was “Non-Toxic”, the Activity [8] was “Toxic” and the LD50 [9] was 6.3 mg/kg and 2.7 µmol/kg. The Ratio [10] was 14%, the inhibition in vivo at 10 mg/kg [11] was 84% and the Activity (Salmonella typhimurium [12]) was “Non-Toxic”. The AUC(0-t) [13] was 76000 ng·h/mL, the Activity (Salmonella typhimurium [14]) was “Non-Toxic” and the Activity [15] was “Non-Toxic”. The Activity [16] was “Non-Toxic”, the Activity [17] was “Non-Toxic” and the Activity (PC-3) was “Active”. For the same compound, the AUC(0-inf) [18] was 35000 ng·h/mL, the Activity [19] was “Non-Toxic” and the Activity [20] was “Non-Toxic”. For the same compound, the Stability [21] was “Stable”, the MTD [22] was 4 mg/kg and the Activity (Salmonella typhimurium [23]) was “Non-Toxic”. For the same compound, the Activity [24] was “Non-Toxic”, the Activity (Salmonella typhimurium [25]) was “Non-Toxic” and the Activity [26] was “Non-Toxic”. The Activity [27] was “Non-Toxic”, the Activity (Salmonella typhimurium [28]) was “Non-Toxic” and the Drug metabolism (Cytochrome P450 1A2) was “Metabolite_Notdetected”. The Activity (Salmonella typhimurium [29]) was “Non-Toxic”, the Activity (Salmonella typhimurium [30]) was “Non-Toxic” and the Activity [31] was “Non-Toxic”. For the same compound, the Activity [32] was “Non-Toxic”, the Activity (Salmonella typhimurium [33]) was “Non-Toxic” and the Activity [34] was “Non-Toxic”. The Activity [35] was “Non-Toxic” and the Activity [36] was “Toxic”.
